In patent US20240199597A1, “SMALL MOLECULES FOR THE TREATMENT OF KINASE-RELATED DISEASES” (Athos Therapeutics, Inc., priority 2021, published 2024):

How the values were obtained:
CLK1 = target: T1, CLK1 (Homo sapiens, UniProt P49759); assay: Kinase inhibition assay (Eurofins DiscoverX KinaseProfiler / KdElect), CLK1; assay type: biochemical
T1 construct: purchased Eurofins DiscoverX (contract service)
Description: (§1) The activity of Compounds 1, 3, 4, 6, 7, 8, 9, 10 and 13 in inhibiting CLK1, CLK4, PLK4, and FLT3 kinases was determined. Stock solutions of the compounds being evaluated were prepared. The IC50 values were determined by the Eurofins DiscoverX services using either the KinaseProfiler or the KdElect kinase activity detection assays.

CLK4 = target: T2, CLK4 (Homo sapiens, UniProt Q9HAZ1); assay: Kinase inhibition assay (Eurofins DiscoverX KinaseProfiler / KdElect), CLK4; assay type: biochemical
T2 construct: purchased Eurofins DiscoverX (contract service)
T2 sequence (Q9HAZ1 whole entry): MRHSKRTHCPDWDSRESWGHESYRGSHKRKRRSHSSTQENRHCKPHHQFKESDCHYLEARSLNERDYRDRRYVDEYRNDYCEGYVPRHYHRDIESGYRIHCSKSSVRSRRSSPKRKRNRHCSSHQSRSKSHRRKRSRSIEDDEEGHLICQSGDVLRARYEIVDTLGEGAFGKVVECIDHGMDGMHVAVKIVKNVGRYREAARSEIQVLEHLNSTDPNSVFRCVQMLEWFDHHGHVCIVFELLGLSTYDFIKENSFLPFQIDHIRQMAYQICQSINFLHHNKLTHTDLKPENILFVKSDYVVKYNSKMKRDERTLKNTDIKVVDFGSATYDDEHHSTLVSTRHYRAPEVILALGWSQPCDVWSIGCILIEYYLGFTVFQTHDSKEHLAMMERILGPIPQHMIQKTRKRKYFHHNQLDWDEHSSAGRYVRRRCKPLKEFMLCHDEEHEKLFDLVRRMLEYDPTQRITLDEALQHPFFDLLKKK
Description: as §1

PLK4 = target: T3, PLK4 (Homo sapiens, UniProt O00444); assay: Kinase inhibition assay (Eurofins DiscoverX KinaseProfiler / KdElect), PLK4; assay type: biochemical
T3 construct: purchased Eurofins DiscoverX (contract service)
T3 sequence (O00444 1-970): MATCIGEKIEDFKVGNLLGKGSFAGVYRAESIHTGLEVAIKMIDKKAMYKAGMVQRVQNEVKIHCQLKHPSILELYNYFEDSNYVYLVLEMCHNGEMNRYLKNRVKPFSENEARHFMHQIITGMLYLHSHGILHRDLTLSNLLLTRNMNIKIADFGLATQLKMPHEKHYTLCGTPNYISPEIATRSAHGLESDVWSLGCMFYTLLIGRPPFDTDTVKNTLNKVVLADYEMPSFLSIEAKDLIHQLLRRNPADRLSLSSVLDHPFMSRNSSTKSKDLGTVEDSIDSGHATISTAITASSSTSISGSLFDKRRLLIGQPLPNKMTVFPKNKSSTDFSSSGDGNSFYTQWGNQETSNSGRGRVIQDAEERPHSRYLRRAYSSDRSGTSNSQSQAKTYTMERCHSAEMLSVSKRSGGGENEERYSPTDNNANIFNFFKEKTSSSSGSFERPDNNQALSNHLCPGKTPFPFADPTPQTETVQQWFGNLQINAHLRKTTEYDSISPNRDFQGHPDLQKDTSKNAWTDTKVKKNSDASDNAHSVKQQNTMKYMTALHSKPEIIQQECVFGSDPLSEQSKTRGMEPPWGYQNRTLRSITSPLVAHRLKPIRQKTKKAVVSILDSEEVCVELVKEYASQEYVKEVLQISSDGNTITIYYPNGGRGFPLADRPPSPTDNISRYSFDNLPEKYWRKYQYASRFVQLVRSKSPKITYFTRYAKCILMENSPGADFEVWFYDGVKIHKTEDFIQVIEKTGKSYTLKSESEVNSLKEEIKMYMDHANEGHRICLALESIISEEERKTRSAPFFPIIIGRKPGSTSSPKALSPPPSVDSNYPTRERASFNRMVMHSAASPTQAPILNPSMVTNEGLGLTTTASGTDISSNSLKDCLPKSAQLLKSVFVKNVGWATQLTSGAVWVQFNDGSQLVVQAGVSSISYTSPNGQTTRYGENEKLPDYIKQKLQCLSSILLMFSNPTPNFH
Description: as §1

FLT3 = target: T4, FLT3 (Homo sapiens, UniProt P36888); assay: Kinase assay (Eurofins DiscoverX KinaseProfiler / KdElect), FLT3; assay type: binding; conditions: read-out: FLT3 (Kd50 nM)
T4 construct: purchased Eurofins DiscoverX (contract service)
T4 sequence (P36888 27-993): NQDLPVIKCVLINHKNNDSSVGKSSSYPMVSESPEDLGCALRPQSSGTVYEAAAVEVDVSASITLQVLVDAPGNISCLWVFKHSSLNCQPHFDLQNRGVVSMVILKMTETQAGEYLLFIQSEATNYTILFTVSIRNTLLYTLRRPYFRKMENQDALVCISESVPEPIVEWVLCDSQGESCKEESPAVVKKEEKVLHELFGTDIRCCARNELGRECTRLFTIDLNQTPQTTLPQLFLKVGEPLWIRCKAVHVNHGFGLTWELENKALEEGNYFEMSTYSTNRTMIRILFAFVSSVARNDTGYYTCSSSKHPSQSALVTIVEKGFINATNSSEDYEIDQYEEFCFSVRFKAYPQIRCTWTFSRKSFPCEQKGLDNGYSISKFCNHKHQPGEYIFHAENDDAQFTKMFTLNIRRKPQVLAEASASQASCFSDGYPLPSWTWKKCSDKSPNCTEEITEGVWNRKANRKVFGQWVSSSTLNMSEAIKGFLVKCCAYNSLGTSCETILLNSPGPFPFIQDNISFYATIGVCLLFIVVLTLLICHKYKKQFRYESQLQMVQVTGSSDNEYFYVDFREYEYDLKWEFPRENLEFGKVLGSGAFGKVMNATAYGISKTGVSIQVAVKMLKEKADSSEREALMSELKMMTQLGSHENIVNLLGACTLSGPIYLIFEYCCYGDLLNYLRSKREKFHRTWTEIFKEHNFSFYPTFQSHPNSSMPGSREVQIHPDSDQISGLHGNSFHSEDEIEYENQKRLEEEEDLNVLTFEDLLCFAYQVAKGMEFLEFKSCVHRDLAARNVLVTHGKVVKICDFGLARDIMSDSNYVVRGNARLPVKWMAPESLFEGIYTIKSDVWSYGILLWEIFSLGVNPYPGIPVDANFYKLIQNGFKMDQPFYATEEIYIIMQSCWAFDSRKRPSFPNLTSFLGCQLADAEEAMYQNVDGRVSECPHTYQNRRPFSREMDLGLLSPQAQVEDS
Description: Stock solutions of the compounds being evaluated were prepared. The IC50 values were determined by the Eurofins DiscoverX services using either the KinaseProfiler or the KdElect kinase activity detection assays.

HCT-116 = assay: Cancer cytotoxicity assay (Real-Time-Glo cell viability), HCT-116; assay type: cell-based; conditions: Homo sapiens, colorectal cancer cell line, 72 hr
Description: (§2) The cytotoxicity of Compounds 1, 3, 4, 6, 7, 8, 9, 10, 12 and 13 against cancer cell lines was determined. To determine the optimal plating density for cell viability assays, for each cell line, cells were counted and diluted to final densities of 2.5, 5, 10 and 20 thousand per 100 μL of their respective growth media per well in 96 well plates. The Promega Real-Time-Glo cell viability kit was used to determine the optimal concentration for cell plating so that each cell line would be within the linear part of its growth curve after 72 hrs in culture. For the determination of test compound IC50s, different cancer cell lines were plated in 96 well plates in the pre-determined optimal density for each cell line. Test compounds were then added at different concentrations for the creation of six-point curve and cell density was determined using the Promega Real-Time-Glo cell viability kit after 24, 48, and 72 hrs in culture.

HT-29 = assay: Cancer cytotoxicity assay (Real-Time-Glo cell viability), HT-29; assay type: cell-based; conditions: Homo sapiens, colorectal cancer cell line, 72 hr
Description: as §2

A-498 = assay: Cancer cytotoxicity assay (Real-Time-Glo cell viability), A-498; assay type: cell-based; conditions: Homo sapiens, A498; kidney cancer, 72 hr
Description: as §2

786-O = assay: Cancer cytotoxicity assay (Real-Time-Glo cell viability), 786-O; assay type: cell-based; conditions: Homo sapiens, 786-0; kidney cancer, 72 hr
Description: as §2

SKOV-3 = assay: Cancer cytotoxicity assay (Real-Time-Glo cell viability), SKOV-3; assay type: cell-based; conditions: Homo sapiens, SK-OV-3; ovarian cancer cell line, 72 hr
Description: as §2

OV-90 = assay: Cancer cytotoxicity assay (Real-Time-Glo cell viability), OV-90; assay type: cell-based; conditions: Homo sapiens, ovarian cancer cell line, 72 hr
Description: as §2

Kasumi-1 = assay: Cancer cytotoxicity assay (Real-Time-Glo cell viability), Kasumi-1; assay type: cell-based; conditions: Homo sapiens, leukemia cell, 72 hr
Description: as §2

Kasumi-3 = assay: Cancer cytotoxicity assay (Real-Time-Glo cell viability), Kasumi-3; assay type: cell-based; conditions: leukemia cell, 72 hr
Description: as §2

MV4-11 = assay: Cancer cytotoxicity assay (Real-Time-Glo cell viability), MV4-11; assay type: cell-based; conditions: Homo sapiens, leukemia cell, 72 hr
Description: as §2

HT-29 cells = assay: Reduction of colorectal tumor mass, HT-29 xenograft in nude mice; assay type: in vivo, Male nude mice; conditions: 5 mg/kg I.P. every 48 h
Description: Male nude mice ages 6-8 weeks (NU/J. Jackson Laboratories) received rear, hind leg flank subcutaneous injections of 5×10^6 HT-29 cells diluted 1:1 in matrigel-cell culture media. Mice were then monitored daily until tumor nodules reached 100-200 mm^3 upon which point they were randomized into treatment groups based on their weight and tumor size and treatment. Mice (10 mice per group) were injected I.P. every 48 h with 100 μL of either vehicle control or Compound 8 (5 mg/kg). Tumor nodules were then monitored every 48 h for up to 28 days with tumor volumes calculated using the equation V=(L*W2)/2 where L is length and W is width of a tumor. Differences in xenograft volumes between the different groups were analyzed by single factor analysis of variance of the log-transformed tumor volume data. Mice with tumors that exceed 1000 mm^3 were euthanized to avoid excessive suffering.

T1 sequence (P49759 whole entry): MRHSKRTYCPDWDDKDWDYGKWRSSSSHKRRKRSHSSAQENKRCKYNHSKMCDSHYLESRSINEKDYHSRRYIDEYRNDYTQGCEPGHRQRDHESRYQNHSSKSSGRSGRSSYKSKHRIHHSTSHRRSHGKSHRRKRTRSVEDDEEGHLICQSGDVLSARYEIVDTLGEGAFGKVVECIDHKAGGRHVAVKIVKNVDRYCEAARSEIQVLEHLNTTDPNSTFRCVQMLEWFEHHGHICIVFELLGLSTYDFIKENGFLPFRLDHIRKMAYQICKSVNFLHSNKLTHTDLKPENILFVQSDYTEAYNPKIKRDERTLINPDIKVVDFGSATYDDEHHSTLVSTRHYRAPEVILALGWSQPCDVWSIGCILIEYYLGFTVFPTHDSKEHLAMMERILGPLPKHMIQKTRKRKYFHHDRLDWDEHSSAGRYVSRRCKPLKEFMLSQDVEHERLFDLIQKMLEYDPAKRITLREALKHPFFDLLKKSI

CCc1cc(Nc2nc(N3CCC(F)(F)CC3)nc3cc(OCCCN4CCCC4)c(OC)cc23)n[nH]1 [Compound 8, 2-(4,4-difluoropiperidin-1-yl)-N-(5-ethyl-1H-pyrazol-3-yl)-6-methoxy-7-(3-(pyrrolidin-1-yl)propoxy)quinazolin-4-amine]
IC50 (CLK1): < 1000 nM
IC50 (CLK4): < 1000 nM
IC50 (PLK4): < 1000 nM
Kd (FLT3): < 1000 nM
IC50 (HCT-116): 1000 to 5000 nM
IC50 (HT-29): 1000 to 5000 nM
IC50 (A-498): 1000 to 5000 nM
IC50 (786-O): 1000 to 5000 nM
IC50 (SKOV-3): 1000 to 5000 nM
IC50 (OV-90): 1000 to 5000 nM
IC50 (Kasumi-1): 1000 to 5000 nM
IC50 (Kasumi-3): 1000 to 5000 nM
IC50 (MV4-11): < 1000 nM
tumor growth compared to vehicle control (FIG. 3A) (HT-29 cells; 16 day study): significantly slower tumor growth
tumors on day 16 compared to vehicle (HT-29 cells; day 16): significantly smaller tumors
increase of tumor (FIG. 3B, tumor mass) (HT-29 cells; vehicle 600%): 370%
